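A five-concentration, 48-hour dose response in 96-well plates underlies each endpoint, interpolated linearly between surrounding concentrations. The concentration for full growth arrest is given as TGI.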
tested on: 786-0 renal; assay: growth of human tumour cells (NCI), 48 h

`Cc1ccn2c(c1)nc1nc3ccccc3nc12` and `O=c1cc(-c2ccc(F)cc2)[nH]c2ncc(Cl)cc12` cannot be ordered by TGI: > 100 µM for the first, > 100 µM for the second.

tested on: LOX IMVI melanoma; assay: growth of human tumour cells (NCI), 48 h

First: O=C(Cc1ccccc1)NN1C(=O)C(Cl)C1c1cc(Br)ccc1O (configuration not stated)
Second: N#CC(NNC(=O)Cc1ccccc1)c1c(O)ccc2ccccc12 (configuration not stated)
The TGI of the first is higher: > 100 µM for the first, 14.3 µM for the second.

`Cc1cc(Cl)ccc1N=C1NC(=O)C(CC(=O)Nc2ccc([N+](=O)[O-])cc2[N+](=O)[O-])S1` (configuration not stated) and `O=c1cc(-c2ccc(F)cc2)[nH]c2ncc(Cl)cc12` cannot be ordered by TGI: > 100 µM for the first, > 100 µM for the second.

`Cc1ccn2c(c1)nc1nc3ccccc3nc12` and `COC1C=CC(O)C(CO)O1` (configuration not stated) cannot be ordered by TGI: > 100 µM for the first, > 100 µM for the second.

tested on: KM20L2 colon; assay: growth of human tumour cells (NCI), 48 h

First: O=C(Cc1ccccc1)NN1C(=O)C(Cl)C1c1cc(Br)ccc1O (configuration not stated)
Second: N#CC(NNC(=O)Cc1ccccc1)c1c(O)ccc2ccccc12 (configuration not stated)
The TGI of the first is higher: > 100 µM for the first, 42 µM for the second.

`Cc1cc(Cl)ccc1N=C1NC(=O)C(CC(=O)Nc2ccc([N+](=O)[O-])cc2[N+](=O)[O-])S1` (configuration not stated) and `Cc1ccn2c(c1)nc1nc3ccccc3nc12` cannot be ordered by TGI: > 100 µM for the first, > 100 µM for the second.

For `COC1C=CC(O)C(CO)O1` (configuration not stated), the TGI was > 100 µM.

tested on: K-562 leukemia; assay: growth of human tumour cells (NCI), 48 h

First: O=C(Cc1ccccc1)NN1C(=O)C(Cl)C1c1cc(Br)ccc1O (configuration not stated)
Second: N#CC(NNC(=O)Cc1ccccc1)c1c(O)ccc2ccccc12 (configuration not stated)
The TGI of the first is lower: 42.7 µM for the first, > 100 µM for the second.

Going from `Cc1cc(Cl)ccc1N=C1NC(=O)C(CC(=O)Nc2ccc([N+](=O)[O-])cc2[N+](=O)[O-])S1` (configuration not stated) to `O=c1cc(-c2ccc(F)cc2)[nH]c2ncc(Cl)cc12`, the TGI falls from > 100 µM to 32.6 µM.

`COc1cc(C2C(Cl)C(=O)N2NC(=O)c2ccc(NC(C)=O)cc2)cc(OC)c1OC` (configuration not stated) and `Cc1ccn2c(c1)nc1nc3ccccc3nc12` cannot be ordered by TGI: > 100 µM for the first, > 100 µM for the second.

In the case of `COC1C=CC(O)C(CO)O1` (configuration not stated), the TGI is reported as > 100 µM.

tested on: CAKI-1 renal; assay: growth of human tumour cells (NCI), 48 h

Compared with `O=C(Cc1ccccc1)NN1C(=O)C(Cl)C1c1cc(Br)ccc1O` (configuration not stated), `N#CC(NNC(=O)Cc1ccccc1)c1c(O)ccc2ccccc12` (configuration not stated) is 2.4-fold lower in TGI: 60.7 µM for the first, 25.8 µM for the second.

Compared with `Cc1cc(Cl)ccc1N=C1NC(=O)C(CC(=O)Nc2ccc([N+](=O)[O-])cc2[N+](=O)[O-])S1` (configuration not stated), `O=c1cc(-c2ccc(F)cc2)[nH]c2ncc(Cl)cc12` is higher in TGI: 54.3 µM for the first, > 100 µM for the second.

In the case of `Cc1ccn2c(c1)nc1nc3ccccc3nc12`, the TGI is reported as > 100 µM.

tested on: SK-MEL-2 melanoma; assay: growth of human tumour cells (NCI), 48 h

Going from `O=C(Cc1ccccc1)NN1C(=O)C(Cl)C1c1cc(Br)ccc1O` (configuration not stated) to `N#CC(NNC(=O)Cc1ccccc1)c1c(O)ccc2ccccc12` (configuration not stated), the TGI falls from > 100 µM to 26.9 µM.

Compared with `Cc1cc(Cl)ccc1N=C1NC(=O)C(CC(=O)Nc2ccc([N+](=O)[O-])cc2[N+](=O)[O-])S1` (configuration not stated), `O=c1cc(-c2ccc(F)cc2)[nH]c2ncc(Cl)cc12` is higher in TGI: 46.1 µM for the first, > 100 µM for the second.

`COc1cc(C2C(Cl)C(=O)N2NC(=O)c2ccc(NC(C)=O)cc2)cc(OC)c1OC` (configuration not stated) and `Cc1ccn2c(c1)nc1nc3ccccc3nc12` cannot be ordered by TGI: > 100 µM for the first, > 100 µM for the second.

For `COC1C=CC(O)C(CO)O1` (configuration not stated), the TGI was > 100 µM.

tested on: KM12 colon; assay: growth of human tumour cells (NCI), 48 h

`O=C(Cc1ccccc1)NN1C(=O)C(Cl)C1c1cc(Br)ccc1O` (configuration not stated) and `N#CC(NNC(=O)Cc1ccccc1)c1c(O)ccc2ccccc12` (configuration not stated) cannot be ordered by TGI: > 100 µM for the first, > 72.4 µM for the second.

`Cc1cc(Cl)ccc1N=C1NC(=O)C(CC(=O)Nc2ccc([N+](=O)[O-])cc2[N+](=O)[O-])S1` (configuration not stated) and `O=c1cc(-c2ccc(F)cc2)[nH]c2ncc(Cl)cc12` cannot be ordered by TGI: > 100 µM for the first, > 100 µM for the second.

`COc1cc(C2C(Cl)C(=O)N2NC(=O)c2ccc(NC(C)=O)cc2)cc(OC)c1OC` (configuration not stated) and `Cc1ccn2c(c1)nc1nc3ccccc3nc12` cannot be ordered by TGI: > 100 µM for the first, > 100 µM for the second.

`COC1C=CC(O)C(CO)O1` (configuration not stated) was tested, and the TGI was > 100 µM.

tested on: CCRF-CEM leukemia; assay: growth of human tumour cells (NCI), 48 h

First: O=C(Cc1ccccc1)NN1C(=O)C(Cl)C1c1cc(Br)ccc1O (configuration not stated)
Second: N#CC(NNC(=O)Cc1ccccc1)c1c(O)ccc2ccccc12 (configuration not stated)
The TGI of the first is higher: > 100 µM for the first, 26.9 µM for the second.

Going from `Cc1cc(Cl)ccc1N=C1NC(=O)C(CC(=O)Nc2ccc([N+](=O)[O-])cc2[N+](=O)[O-])S1` (configuration not stated) to `O=c1cc(-c2ccc(F)cc2)[nH]c2ncc(Cl)cc12`, the TGI falls from > 100 µM to 77.1 µM.

`COc1cc(C2C(Cl)C(=O)N2NC(=O)c2ccc(NC(C)=O)cc2)cc(OC)c1OC` (configuration not stated) and `Cc1ccn2c(c1)nc1nc3ccccc3nc12` cannot be ordered by TGI: > 100 µM for the first, > 100 µM for the second.

With `COC1C=CC(O)C(CO)O1` (configuration not stated) the TGI was > 100 µM.

tested on: SF-539 CNS; assay: growth of human tumour cells (NCI), 48 h

Going from `Cc1cc(Cl)ccc1N=C1NC(=O)C(CC(=O)Nc2ccc([N+](=O)[O-])cc2[N+](=O)[O-])S1` (configuration not stated) to `O=c1cc(-c2ccc(F)cc2)[nH]c2ncc(Cl)cc12`, the TGI rises from 59.1 µM to 97.8 µM (1.7-fold).

First: N#CC(NNC(=O)Cc1ccccc1)c1c(O)ccc2ccccc12 (configuration not stated)
Second: Cc1ccn2c(c1)nc1nc3ccccc3nc12
The TGI of the first is lower: 29 µM for the first, > 100 µM for the second.

`COc1cc(C2C(Cl)C(=O)N2NC(=O)c2ccc(NC(C)=O)cc2)cc(OC)c1OC` (configuration not stated) and `COC1C=CC(O)C(CO)O1` (configuration not stated) cannot be ordered by TGI: > 100 µM for the first, > 100 µM for the second.

tested on: HCT-116 colon; assay: growth of human tumour cells (NCI), 48 h

First: O=C(Cc1ccccc1)NN1C(=O)C(Cl)C1c1cc(Br)ccc1O (configuration not stated)
Second: N#CC(NNC(=O)Cc1ccccc1)c1c(O)ccc2ccccc12 (configuration not stated)
The TGI of the first is higher: > 100 µM for the first, 50.9 µM for the second.

`COc1cc(C2C(Cl)C(=O)N2NC(=O)c2ccc(NC(C)=O)cc2)cc(OC)c1OC` (configuration not stated) and `O=c1cc(-c2ccc(F)cc2)[nH]c2ncc(Cl)cc12` cannot be ordered by TGI: > 100 µM for the first, > 61.3 µM for the second.

For `COC1C=CC(O)C(CO)O1` (configuration not stated), the TGI was > 100 µM.

tested on: MDA-N; assay: growth of human tumour cells (NCI), 48 h

Compared with `N#CC(NNC(=O)Cc1ccccc1)c1c(O)ccc2ccccc12` (configuration not stated), `O=c1cc(-c2ccc(F)cc2)[nH]c2ncc(Cl)cc12` is lower in TGI: > 100 µM for the first, 7.91 µM for the second.

tested on: PC-3 prostate; assay: growth of human tumour cells (NCI), 48 h

`N#CC(NNC(=O)Cc1ccccc1)c1c(O)ccc2ccccc12` (configuration not stated) and `O=c1cc(-c2ccc(F)cc2)[nH]c2ncc(Cl)cc12` cannot be ordered by TGI: > 62.9 µM for the first, > 100 µM for the second.

tested on: DLD-1 colon; assay: growth of human tumour cells (NCI), 48 h

`O=C(Cc1ccccc1)NN1C(=O)C(Cl)C1c1cc(Br)ccc1O` (configuration not stated) and `N#CC(NNC(=O)Cc1ccccc1)c1c(O)ccc2ccccc12` (configuration not stated) cannot be ordered by TGI: > 100 µM for the first, > 100 µM for the second.

`Cc1cc(Cl)ccc1N=C1NC(=O)C(CC(=O)Nc2ccc([N+](=O)[O-])cc2[N+](=O)[O-])S1` (configuration not stated) and `COc1cc(C2C(Cl)C(=O)N2NC(=O)c2ccc(NC(C)=O)cc2)cc(OC)c1OC` (configuration not stated) cannot be ordered by TGI: > 100 µM for the first, > 100 µM for the second.

`Cc1ccn2c(c1)nc1nc3ccccc3nc12` and `COC1C=CC(O)C(CO)O1` (configuration not stated) cannot be ordered by TGI: > 100 µM for the first, > 100 µM for the second.

tested on: HCT-15 colon; assay: growth of human tumour cells (NCI), 48 h

`O=C(Cc1ccccc1)NN1C(=O)C(Cl)C1c1cc(Br)ccc1O` (configuration not stated) and `N#CC(NNC(=O)Cc1ccccc1)c1c(O)ccc2ccccc12` (configuration not stated) cannot be ordered by TGI: > 100 µM for the first, > 100 µM for the second.

`Cc1cc(Cl)ccc1N=C1NC(=O)C(CC(=O)Nc2ccc([N+](=O)[O-])cc2[N+](=O)[O-])S1` (configuration not stated) and `O=c1cc(-c2ccc(F)cc2)[nH]c2ncc(Cl)cc12` cannot be ordered by TGI: > 100 µM for the first, > 100 µM for the second.

`Cc1ccn2c(c1)nc1nc3ccccc3nc12` and `COC1C=CC(O)C(CO)O1` (configuration not stated) cannot be ordered by TGI: > 100 µM for the first, > 100 µM for the second.

tested on: LXFL 529 NSCLC; assay: growth of human tumour cells (NCI), 48 h

`O=C(Cc1ccccc1)NN1C(=O)C(Cl)C1c1cc(Br)ccc1O` (configuration not stated) and `COc1cc(C2C(Cl)C(=O)N2NC(=O)c2ccc(NC(C)=O)cc2)cc(OC)c1OC` (configuration not stated) cannot be ordered by TGI: > 100 µM for the first, > 100 µM for the second.

Going from `Cc1cc(Cl)ccc1N=C1NC(=O)C(CC(=O)Nc2ccc([N+](=O)[O-])cc2[N+](=O)[O-])S1` (configuration not stated) to `Cc1ccn2c(c1)nc1nc3ccccc3nc12`, the TGI rises from 47.5 µM to > 100 µM.

For `COC1C=CC(O)C(CO)O1` (configuration not stated), the TGI was > 100 µM.

tested on: U251 CNS; assay: growth of human tumour cells (NCI), 48 h

`O=C(Cc1ccccc1)NN1C(=O)C(Cl)C1c1cc(Br)ccc1O` (configuration not stated) and `N#CC(NNC(=O)Cc1ccccc1)c1c(O)ccc2ccccc12` (configuration not stated) are within 1.5-fold of each other in TGI: 32.6 µM for the first, 45 µM for the second.

Compared with `Cc1cc(Cl)ccc1N=C1NC(=O)C(CC(=O)Nc2ccc([N+](=O)[O-])cc2[N+](=O)[O-])S1` (configuration not stated), `O=c1cc(-c2ccc(F)cc2)[nH]c2ncc(Cl)cc12` is higher in TGI: 59.9 µM for the first, > 83.4 µM for the second.

`COc1cc(C2C(Cl)C(=O)N2NC(=O)c2ccc(NC(C)=O)cc2)cc(OC)c1OC` (configuration not stated) and `Cc1ccn2c(c1)nc1nc3ccccc3nc12` cannot be ordered by TGI: > 100 µM for the first, > 100 µM for the second.

`COC1C=CC(O)C(CO)O1` (configuration not stated) was tested, and the TGI was > 100 µM.

tested on: SN12C renal; assay: growth of human tumour cells (NCI), 48 h

First: O=C(Cc1ccccc1)NN1C(=O)C(Cl)C1c1cc(Br)ccc1O (configuration not stated)
Second: N#CC(NNC(=O)Cc1ccccc1)c1c(O)ccc2ccccc12 (configuration not stated)
The TGI of the first is higher: > 100 µM for the first, 61.3 µM for the second.

Compared with `Cc1cc(Cl)ccc1N=C1NC(=O)C(CC(=O)Nc2ccc([N+](=O)[O-])cc2[N+](=O)[O-])S1` (configuration not stated), `O=c1cc(-c2ccc(F)cc2)[nH]c2ncc(Cl)cc12` is higher in TGI: 90.7 µM for the first, > 100 µM for the second.

With `COC1C=CC(O)C(CO)O1` (configuration not stated) the TGI was > 100 µM.

tested on: BT-549 breast; assay: growth of human tumour cells (NCI), 48 h

First: N#CC(NNC(=O)Cc1ccccc1)c1c(O)ccc2ccccc12 (configuration not stated)
Second: O=c1cc(-c2ccc(F)cc2)[nH]c2ncc(Cl)cc12
The TGI of the first is lower: 24.7 µM for the first, > 100 µM for the second.

From PubChem BioAssay (NCI)
